Experimental data published in patent US20210276960A1, “INHIBITORS OF TISSUE TRANSGLUTAMINASE 2 (TG2) AND USES THEREOF” (Northwestern University, priority 2020, published 2021).

Columns and labels:
[1] = tested on: OVCAR5 cells attachment onto FN; assay: Early attachment assay with IF staining; format: cell-based, human; conditions: 1 μM, 72 hours pre-treatment, 30 minutes after seeding
Description: (§1) OVCAR5 cells were seeded(1×10^5 cells/well) in 6-well plates (Denville Scientific) and treated for 72 hrs with 1 μM MT-4, TG53 or vehicle control (DMSO). After drug exposure, cells were detached using Cellstripper (cellgro, #25-056-CI, CORNING, Manassas, Va., USA), centrifuged, and counted. Before seeding for either confocal microscopy or western blotting, they were incubated in serum free media in the presence of drugs for 15-90 minutes, as stated in the figure legends.
In order to analyze cell adhesion complex proteins expression and localization upon early attachment, cells were treated as stated above and then seeded onto FN-coated cover slips for 30 minutes at 37° C. Samples were fixed in 4% p-formaldehyde (PFA) and permeabilized with 0.2% Triton-X-100. After blocking, focal contacts were identified by using anti-vinculin antibodies, activation of integrins signaling pathway was assessed by antibodies against phosphorylated focal adhesion kinase (FAK), while actin cytoskeleton was labeled by Alexa Fluor 488-conjugated phalloidin (Life Technologies, #A12379). Nuclei were stained with 1:10000 Hoechst (Thermo Scientific) and specimens were mounted in Prolong Gold anti-fadereagent (Life Technologies). Cells were analyzed by laser scanning using a Nikon A1RGaAsPConfocal Laser Microscope. For co-localization analyses, SKOV3 cells were treated with DMSO (control) or TG53 (1 μM) and plated on FN-coated chamber slides (BD Biosciences) for 72 hrs. IF analysis was performed as previously described (Condello et al., 2013b). Briefly, after fixation, permeabilization and blocking, cells were incubated overnight with p-FAK (Y576/577), c-Src, p-Src (Y416), integrin β1 or TG2 primary antibodies in blocking buffer at 4° C., followed by 1 h incubation with Cy5-conjugated anti-mouse secondary antibody (1:500; Zymed Laboratories; South San Francisco, Calif., USA) or Alexa Fluor 488 anti-rabbit secondary antibody (1:1000; Molecular Probes, Eugene, Oreg., USA) at RT. Isotype-specific IgG was used as a negative control. Nuclei were visualized by 4′,6-diamidino-2-phenylindole (DAPI) staining (Vectashield; Vector Laboratories, Burlingame, Calif., USA). Analysis was done using an LSM 510 META confocal multiphoton microscope system (Carl Zeiss Inc., Thomwood, N.Y., USA) under UV excitation at 630 nm (for Cy5), 488 nm (for Alexa Fluor 488), and 340 nm (for DAPI) and using a 60× magnification objective. Colocalization percentage was calculated by normalizing the pixels corresponding to Cy5 or Alexa Fluor 488 emissions to DAPI pixels in the same cell, followed by merging area of green with area of red and determination of average of overlap areas. A Student' t test was calculated to determine statistical significance of differences between drug treated and DMSO control treated cells.

[2] = tested on: integrin β1 on OVCAR5 cells; assay: Flow cytometry of surface integrin β1, OVCAR5; format: cell-based, human; conditions: serial concentrations
Description: FIG. 32. Flow cytometry analysis of integrin 31 plasma membrane expression. […] OC cells were pre-incubated 1 h with serial dilutions of MT4 (as compared to TG53- and DMSO-treated cells), and left to attach for on either plastic (P) or fibronectin (FN) coated 6-well plates. Anti-integrin 31 antibodies (0.5 μg/mL) were used as control.

[3] = tested on: SKOV3 cells adhesion to FN; assay: Solid phase adhesion assay to FN, SKOV3; format: cell-based
Description: Cells labeled with calcein AM (Life Technologies, #L3224) were seeded at a density of 4×10^4 cells in 96-well plates pre-coated with FN (5 μg/mL, Sigma, #F1141), and blocked using 1% BSA (Sigma, #A9647) in PBS in the presence of selected compounds diluted at the specified concentrations, in serum free media. After 45 minutes, unattached cells were washed using PBS containing 1 mM MgCl2(Sigma, #M8266) and adherent cells were quantified in a SpectraMaxGeminiXS fluorescence plate reader (Molecular Devices, Palo Alto, Calif.) at 530 nm wavelength. Experiments were performed inquadruplicate and repeated at least twice.

[4] = tested on: FAK and ERK phosphorylation in OVCAR5 cells; assay: Western blotting, time course after attachment to FN; format: cell-based, human; conditions: 5 μM
Description: FIG. 5. Effects of SMIs targeting the TG2/FN complex on “outside-in” signaling and adhesion to mesothelial surfaces. A, Western blot analysis of total and phosphorylated FAK and ERK was performed using cell lysates extracted from OVCAR cells plated on FN for 15 to 45 minutes in the presence of TG53 (left) or MT-4 (right) at 5 μM concentration, as compared to DMSO. GAPDH was used as a control. OVCAR5 cells had been pretreated with the inhibitors for 72 hours. Densitometry analysis used the Quantity One software and results were normalized to GAPDH loading controls. DMSO 0 min time point was considered as 1 for comparative analysis. Values are shown for each band. B, A modified cell adhesion assay measured the effects of TG53, MT-4, MT-5, and MT-6 (25 μM) on SKOV3 cells' adhesion onto semi-confluent LP9 monolayers. C, Dose-dependent effects of TG53, MT-4, MT-5, and MT-6 on OVCAR433 cells adhesion onto semi-confluent LP9 monolayers. D-E, Wound healing assay measures migration of SKOV3 and OVCAR5 cells in the presence of MT-4, MT-5, MT-6 at a concentration of 8 μM (black bars) or vehicle (open bar). Migration rate was determined over a period of 24 hours by measuring the average distance between the wound borders at the beginning and at the end of the assay interval (n=4). F-G, SKOV3-GFP OC cells were injected ip in NSG mice in the presence of either MT-4 ([…]) (F) or MT-6 ([…]) (G) and allowed to attach to the peritoneal wall. After 2 hours, the cell suspension was recovered from the peritoneal cavity through peritoneal washings and the non-attached OC cells recovered were counted. *p<0.05, **p<0.01, ***p<0.001, ****p<0.0001.
as §1
Cells pre-treated as stated above were seeded in 60 mm dishes coated with 5 μg/mL FN and serially harvested at 15, 30, and 45 minutes, − or left unattached (0 min), in cold RIPA buffer. Lysates were separated by SDS-PAGE, transferred onto PVDF membranes (Bio-Rad), incubated with primary and secondary antibodies and developed by using SuperSignal™ West Femto Maximum Sensitivity Substrate and Pierce™ ECL Western Blotting Substrate, respectively (Thermo Scientific). […] Densitometry analysis was performed using Quantity One software (Bio-Rad) and results were normalized to GAPDH loading controls. […]

Row | Structure (SMILES) | FAK phosphorylation (IF) [1] | number of focal contacts with FN-coated substrate (vinculin) [1] | β1 integrin receptors at the plasma membrane [2] | cell adhesion to FN, dose dependence ([3]; 2 μM-25 μM) | OC cells' adhesion to FN ([3]; FN 5 μg/mL, FIG. 2E) | ERK phosphorylation, time course ([4]; 15 to 45 minutes on FN) | FAK phosphorylation, time course ([4]; 15 to 45 minutes on FN) | cell adhesion to FN ([3]; 25 μM, FIG. 13A) | inhibition of cell adhesion to FN, TG2 expressing vs AS-TG2 cells ([3]; 25 μM, SKOV3pcDNA3.1 vs SKOV3-ASTG2) | cell adhesion to FN, dose dependence and specificity ([3]; 1-25 μM, TG53 compared with TG288) | time of peak FAK activation post cell seeding on FN ([4]; control 15 minutes)
1 | Cc1cc(N(C)C)nc(Nc2ccc(NC(=O)Cc3ccccc3)cc2)n1 [MT-4] | decreased | decreased | did not show significant downregulation | dose-dependent inhibitory effect | potently blocked | inhibited and delayed | more evident | – | – | – | –
2 | COc1ccc(Cl)cc1C(=O)Nc1ccc(Nc2nc(C)cc(N(C)C)n2)cc1 [TG53] | decreased | decreased | did not show significant downregulation | – | – | – | modestly delayed | inhibited cell adhesion | more pronounced in TG2 expressing SKOV3pcDNA3.1 cells | dose-dependent | 30 min
